In patent publication US6683063B2, “Prevention and treatment of pulmonary bacterial infection or symptomatic pulmonary exposure to endotoxin by inhalation of antiendotoxin drugs” (Eisai Co., Ltd., priority 1995, dated 2004):

System: LPS-induced TNF-α in human whole blood
Experiment: Persistence of compounds in human whole blood (preincubation, then LPS challenge, cytokine assay)
Type: cell-based
Settings: average of 7 separate experiments in triplicate, FIG. 3
Procedure: FIG. 2 depicts the general scheme used to analyze antagonistic efficacy of drug after incubation in whole blood for various times.
Although some of the compounds of this invention are not rapidly removed from the circulation, their activity diminishes with a half-life of 1-3 hours. To maintain antagonistic efficacy, this rapid deactivation may require continuous administration. The study of this deactivation has led to the development of an assay to measure in vitro deactivation of drugs in human whole blood. This is done by preincubating lipid A antagonists with blood for various periods of time followed by addition of the LPS “challenge,” as is described above, incubation for three hours, and assay for released cytokines.

## CCCCCCCCCCCC(=O)CC(=O)N[C@H]1[C@@H](OP(=O)(O)O)OC(CO[C@@H]2O[C@H](COC)[C@@H](OP(=O)(O)O)C(OCCC(CCCCCCC)OC(=O)CCC/C=C/C(C)CCCC)[C@H]2NC(=O)CC(=O)CCCCCCCCCCC)[C@@H](O)[C@@H]1OCC[C@H](O)CCCCCCC (stereo partly shown) [Compound B531]
  persistence of LPS-antagonist activity (inhibition of TNF-α) versus time of preincubation: loses activity with increasing time of preincubation
